According to US20250388569A1, “HETEROCYCLIC COMPOUND FOR INHIBITING AND/OR INDUCING DEGRADATION OF KRAS PROTEIN” (ASTELLAS PHARMA INC., priority 2022, published 2025):
pIC50: −log10 of the molar value.

Experiments:
[1] = biological target: T1, KRAS G12D (Homo sapiens, UniProt P01116, G12D); assay: Evaluation of KRAS degradation activity on AsPC-1 by Cell ELISA (Test Example 1); type: cell-based; details: degradation rate of KRAS G12D at 1 μM in AsPC-1 cells, cultured overnight, corrected with β-actin
T1 construct: host or cells: AsPC-1 human pancreatic cancer cells
Description: Test Example 1: Evaluation of KRAS Degradation Activity on Human G12D Mutant KRAS-Positive Pancreatic Cancer Line AsPC-1 (CRL-1682; ATCC)
The KRAS degradation activity of test compounds was evaluated by measuring the expression levels of KRAS G12D by Cell ELISA.
AsPC-1 cells were seeded at 20 μL per well on 384-well plates (from Greiner bio-one) to give 2.0×10^4 cells per well. As for the cell culture conditions, RPMI 1640 (from Sigma-Aldrich) medium containing 10% fetal bovine serum (from Cytiva) was used in the presence of 5% CO2 at 37° C.
The next day, the test compounds (10 points having final concentrations in the range of 10 μM to 0.3 nM) and DMSO (from FUJIFILM Wako Pure Chemical Corporation), which was the solvent for the test compounds, as a negative control were diluted 500-fold with a fresh medium and were added at 20 μL per well. The cells were cultured overnight.
The next day, the culture supernatant was removed, and 4% paraformaldehyde phosphate buffer (from FUJIFILM Wako Pure Chemical Corporation) was added at 20 μL per well. The plates were allowed to stand for 30 minutes at room temperature to thus immobilize the cells. Then, the supernatant was removed, and 0.1% Triton X-100 (from Amersham Biosciences)-containing Phosphate buffered saline (PBS; from FUJIFILM Wako Pure Chemical Corporation) was added at 20 μL per well. After allowing to stand for 10 minutes at room temperature, the supernatant was removed. PBS was added at 25 μL per well, and the supernatant was removed to thus wash each well. The washing was performed twice in total. Next, the supernatant was removed, and 0.5% sodium dodecyl sulfate (SDS; from Invitrogen)-containing PBS was added at 20 μL per well. After allowing to stand at room temperature for 10 minutes, the supernatant was removed by a centrifugal operation (using a centrifugal dehydrator machine, the supernatant was removed by the same method hereinafter). PBS was added at 25 μL per well, and the supernatant was removed to thus wash each well. The washing was performed twice in total. The supernatant was removed, and blocking solution (Intercept Blocking Buffer; from Li-COR Biosciences) was added at 20 μL per well. After allowing to stand for 30 minutes at room temperature, the supernatant was removed, and a solution obtained by diluting anti-β-actin antibody (Anti-beta Actin antibody [mAbcam 8226]-Loading Control; from abcam) 1,000-fold with blocking solution and a solution obtained by diluting anti-Ras (G12D Mutant Specific) antibody (Ras (G12D Mutant Specific) (D8H7) Rabbit mAb #14429; from Cell Signaling Technology) and anti-β-actin antibody (from abcam) 1,000-fold with blocking solution were respectively added to positive control wells and the other wells at 15 μL per well as a primary antibody. The plates were allowed to stand overnight at 4° C.
The next day, the supernatant was removed. PBS was added at 25 μL per well, and the supernatant was removed to thus wash each well. The washing was performed twice in total. The supernatant was removed, and a solution obtained by diluting Donkey anti-Mouse IgG H&L (IRDye 680RD) (from Li-COR Biosciences) and Goat anti-Rabbit IgG H&L (IRDye 800CW) (from Li-COR Biosciences) 1,000-fold with blocking solution was added at 15 μL per well as a secondary antibody. After allowing to stand for 1 hour at room temperature, the supernatant was removed. PBS was added at 25 μL per well, and the supernatant was removed to thus wash each well. The washing was performed twice in total. After removing the supernatant, the plates were dried with air at room temperature for 2 hours or more, and the 700 nm and 800 nm fluorescent signals were measured with Aerius (from Li-COR Biosciences). […]

[2] = system: human G12D mutant KRAS-positive pancreatic cancer line AsPC-1; assay: Non-anchorage-dependent cell growth inhibitory effect, spheroid 3D cell culture (Test Example 2); type: cell-based; details: AsPC-1 spheroid 3D culture, 6 days, CellTiter Glo 2.0
Description: Test Example 2: Evaluation of Non-Anchorage-Dependent Cell Growth Inhibitory Effect on Human G12D Mutant KRAS-Positive Pancreatic Cancer Line AsPC-1
The non-anchorage-dependent cell growth inhibitory effect of test compounds was evaluated by spheroid 3D cell culture.
AsPC-1 cells were seeded on low-cell-adhesive round bottom 384-well plates (PrimeSurface: from Sumitomo Bakelite) at 36 μL/well to give 5×10^2 cells per well. As for the cell culture conditions, RPMI 1640 medium containing 10% fetal bovine serum was used in the presence of 5% CO2 at 37° C.
The next day, the test compounds (6 points having final concentrations in the range of 10 μM to 30 nM) and DMSO, which was the solvent for the test compounds, as a negative control were diluted 100-fold with a fresh medium and were added at 4 μL per well. After culturing in the presence of 5% CO2 at 37° C. for 6 days, CellTiter Glo 2.0 (from Promega) was added at 20 μL per well. After stirring with a plate mixer (from FINEPCR) at normal temperature for 1 hour, the luminescent signals were measured with ARVO X3 (from PerkinElmer).
With the signaling value in treatment with DMSO taken as 100% and with the signaling value in the medium alone without cells taken as 0%, the 50% inhibitory concentration values (IC50) were calculated by Sigmoid-Emax nonlinear regression analysis.

Compound | % degradation [1] [%] | pIC50 ([2]; Homo sapiens, ASPC1, 144 h) | pIC50 [2]
Cc1c(F)cc2[nH]ncc2c1-c1c(C2CC2)cc2c(N3C[C@@H]4C[C@H]3CN4)nc(OC3CCOCC3)nc2c1OCc1ccc(C(=O)N2CCN(C(=O)c3ccc4c(c3)CN(C(=O)c3cc(C(C)C)c(O)cc3O)C4)C[C@H]2C)cc1 (atropisomer, axis not shown) [Example 3] | 46 | 5.55 | –
Cc1c(F)cc2[nH]ncc2c1-c1c(C2CC2)cc2c(N3C[C@@H]4C[C@H]3CN4)nc(OC3CCOCC3)nc2c1OCc1ccc(C(=O)N2C[C@H]3CN(Cc4ccc5c(c4)CN(C(=O)c4cc(C(C)C)c(O)cc4O)C5)C[C@H]3C2)cc1 (atropisomer, axis not shown) [Example 4] | 15 | 5.29 | –
Cc1c(F)cc2[nH]ncc2c1-c1c(C2CC2)cc2c(N3C[C@@H]4C[C@H]3CN4)nc(OC3CCOCC3)nc2c1OCc1ccc(C(=O)N2CCN(Cc3ccc4c(c3)CN(C(=O)c3cc(C(C)C)c(O)cc3O)C4)CC2)cc1 (atropisomer, axis not shown) [Example 6] | 25 | 5.44 | –
CO[C@@H](O)COc1nc(N(C)[C@H]2CCNC2)c2cc(C3CC3)c(-c3c(C)c(F)cc4[nH]ncc34)c(OCc3ccc(C(=O)N4CCN(C(=O)c5ccc6c(c5)CN(C(=O)c5cc(C(C)C)c(O)cc5O)C6)C[C@@H]4C)cc3)c2n1 (atropisomer, axis not shown) [Example 13] | 57 | 5.70 | –
Cc1c(F)cc2[nH]ncc2c1-c1c(C2CC2)cc2c(N3C[C@@H]4C[C@H]3CN4)nc(OC3CCOCC3)nc2c1OCc1ccc(CN2CCN(C(=O)c3ccc4c(c3)CN(C(=O)c3cc(C(C)C)c(O)cc3O)C4)CC2)cc1 (atropisomer, axis not shown) [Example 15] | 17 | 5.41 | –
Cc1c(F)cc2[nH]ncc2c1-c1c(C2CC2)cc2c(N3C[C@@H]4C[C@H]3CN4)nc(OC3CCOCC3)nc2c1OCc1ccc(C(=O)N2CCN(CCCOc3ncc4c(n3)CCN(C(=O)c3cc(C(C)C)c(O)cc3O)C4)CC2)cc1 (atropisomer, axis not shown) [Example 19] | – | 5.64 | –
Cc1c(F)cc2[nH]ncc2c1-c1c(C2CC2)cc2c(N3C[C@@H]4C[C@H]3CN4)nc(OC3CCOCC3)nc2c1OCc1ccc(C(=O)N2C3CCC2CN(Cc2ccc4c(c2)CN(C(=O)c2cc(C(C)C)c(O)cc2O)C4)C3)cc1 [Example 9] | – | 5.47 | –
CO[C@@H](C)COc1cc(O[C@H]2CCNC2)c2cc(C3CC3)c(-c3c(C)c(F)cc4[nH]ncc34)c(OCc3ccc(C(=O)N4CCN(C(=O)c5ccc6c(c5)CN(C(=O)c5cc(C(C)C)c(O)cc5O)C6)C[C@@H]4C)cc3)c2n1 [Example 16] | 30 | – | –
Cc1c(F)cc2[nH]ncc2c1-c1c(C2CC2)cc2c(N3C[C@@H]4C[C@H]3CN4)nc(OC3CCOCC3)nc2c1OCc1ccc(C(=O)N2CCN(C(C)C(=O)c3ccc4c(c3)CN(C(=O)c3cc(C(C)C)c(O)cc3O)C4)CC2)cc1 (stereo partly shown) [Example 18] | 20 | 5.13 | –

Second part, the compound after the results:

% degradation [1] [%] | pIC50 ([2]; Homo sapiens, ASPC1, 144 h) | pIC50 [2] | Compound
44 | 5.72 | – | Cc1c(F)cc2[nH]ncc2c1-c1c(C2CC2)cc2c(N3C[C@@H]4C[C@H]3CN4)nc(OC3CCOCC3)nc2c1OCc1ccc(C(=O)N2CCN(C(=O)c3ccc4c(c3)CN(C(=O)c3cc(C(C)C)c(O)cc3O)C4)C[C@@H]2C)cc1 (atropisomer, axis not shown) [Example 2]
20 | – | – | Cc1c(F)cc2[nH]ncc2c1-c1c(C2CC2)cc2c(N3C[C@@H]4C[C@H]3CN4)nc(OC3CCOCC3)nc2c1OCc1ccc(C(=O)N2CCCN(Cc3ccc4c(c3)CN(C(=O)c3cc(C(C)C)c(O)cc3O)C4)CC2)cc1 (atropisomer, axis not shown) [Example 7]
37 | 5.43 | – | Cc1c(F)cc2[nH]ncc2c1-c1c(C2CC2)cc2c(N3C[C@@H]4C[C@H]3CN4)nc(OC3CCOCC3)nc2c1OCc1ccc(C(=O)N2CCC3(CC2)CN(Cc2ccc4c(c2)CN(C(=O)c2cc(C(C)C)c(O)cc2O)C4)C3)cc1 (atropisomer, axis not shown) [Example 10]
51 | 5.54 | – | Cc1c(F)cc2[nH]ncc2c1-c1c(C2CC2)cc2c(N3C[C@@H]4C[C@H]3CN4)nc(OC3CCOCC3)nc2c1OCc1ccc(C(=O)N2CCN(C3CCN(Cc4ccc5c(c4)CN(C(=O)c4cc(C(C)C)c(O)cc4O)C5)CC3)CC2)cc1 (atropisomer, axis not shown) [Example 11]
20 | 5.46 | – | Cc1c(F)cc2[nH]ncc2c1-c1c(C2CC2)cc2c(N3C[C@@H]4C[C@H]3CN4)nc(OC3CCOCC3)nc2c1OCc1ccc(C(=O)N2CCN(CC3CN(Cc4ccc5c(c4)CN(C(=O)c4cc(C(C)C)c(O)cc4O)C5)C3)CC2)cc1 (atropisomer, axis not shown) [Example 12]
43 | 5.48 | – | Cc1c(F)cc2[nH]ncc2c1-c1c(C2CC2)cc2c(N3C[C@@H]4C[C@H]3CN4)nc(OC3CCOCC3)nc2c1OCc1ccc(C(=O)N2CCN(C(=O)c3ccc4c(c3)CN(C(=O)c3cc(C(C)C)c(O)cc3O)C4)CC2)cc1 (atropisomer, axis not shown; (M)) [Example 1, [5-(4-{4-[({(7M)-6-cyclopropyl-4-[(1S,4S)-2,5-diazabicyclo[2.2.1]heptan-2-yl]-7-(6-fluoro-5-methyl-1H-indazol-4-yl)-2-[(oxan-4-yl)oxy]quinazolin-8-yl}oxy)methyl]benzoyl)piperazine-1-carbonyl)-1,3-dihydro-2H-isoindol-2-yl][2,4-dihydroxy-5-(propan-2-yl)phenyl]methanone]
46 | – | 5.66 | {4-[({(7M)-6-cyclopropyl-4-[(1S,4S)-2,5-diazabicyclo[2.2.1]heptan-2-yl]-7-(6-fluoro-5-methyl-1H-indazol-4-yl)-2-[(oxan-4-yl)oxy]quinazolin-8-yl}oxy)methyl]phenyl) {4-[(4-{3-[2,4-dihydroxy-5-(propan-2-yl)phenyl]-5-hydroxy-4H-1,2,4-triazol-4-yl)phenyl)methyl]piperazin-1-yl}methanone [Example 5]
